The target in this experiment is T1, Mitogen-activated protein kinase kinase kinase 5 (Homo sapiens, UniProt Q99683).
T1 sequence (Q99683 whole entry): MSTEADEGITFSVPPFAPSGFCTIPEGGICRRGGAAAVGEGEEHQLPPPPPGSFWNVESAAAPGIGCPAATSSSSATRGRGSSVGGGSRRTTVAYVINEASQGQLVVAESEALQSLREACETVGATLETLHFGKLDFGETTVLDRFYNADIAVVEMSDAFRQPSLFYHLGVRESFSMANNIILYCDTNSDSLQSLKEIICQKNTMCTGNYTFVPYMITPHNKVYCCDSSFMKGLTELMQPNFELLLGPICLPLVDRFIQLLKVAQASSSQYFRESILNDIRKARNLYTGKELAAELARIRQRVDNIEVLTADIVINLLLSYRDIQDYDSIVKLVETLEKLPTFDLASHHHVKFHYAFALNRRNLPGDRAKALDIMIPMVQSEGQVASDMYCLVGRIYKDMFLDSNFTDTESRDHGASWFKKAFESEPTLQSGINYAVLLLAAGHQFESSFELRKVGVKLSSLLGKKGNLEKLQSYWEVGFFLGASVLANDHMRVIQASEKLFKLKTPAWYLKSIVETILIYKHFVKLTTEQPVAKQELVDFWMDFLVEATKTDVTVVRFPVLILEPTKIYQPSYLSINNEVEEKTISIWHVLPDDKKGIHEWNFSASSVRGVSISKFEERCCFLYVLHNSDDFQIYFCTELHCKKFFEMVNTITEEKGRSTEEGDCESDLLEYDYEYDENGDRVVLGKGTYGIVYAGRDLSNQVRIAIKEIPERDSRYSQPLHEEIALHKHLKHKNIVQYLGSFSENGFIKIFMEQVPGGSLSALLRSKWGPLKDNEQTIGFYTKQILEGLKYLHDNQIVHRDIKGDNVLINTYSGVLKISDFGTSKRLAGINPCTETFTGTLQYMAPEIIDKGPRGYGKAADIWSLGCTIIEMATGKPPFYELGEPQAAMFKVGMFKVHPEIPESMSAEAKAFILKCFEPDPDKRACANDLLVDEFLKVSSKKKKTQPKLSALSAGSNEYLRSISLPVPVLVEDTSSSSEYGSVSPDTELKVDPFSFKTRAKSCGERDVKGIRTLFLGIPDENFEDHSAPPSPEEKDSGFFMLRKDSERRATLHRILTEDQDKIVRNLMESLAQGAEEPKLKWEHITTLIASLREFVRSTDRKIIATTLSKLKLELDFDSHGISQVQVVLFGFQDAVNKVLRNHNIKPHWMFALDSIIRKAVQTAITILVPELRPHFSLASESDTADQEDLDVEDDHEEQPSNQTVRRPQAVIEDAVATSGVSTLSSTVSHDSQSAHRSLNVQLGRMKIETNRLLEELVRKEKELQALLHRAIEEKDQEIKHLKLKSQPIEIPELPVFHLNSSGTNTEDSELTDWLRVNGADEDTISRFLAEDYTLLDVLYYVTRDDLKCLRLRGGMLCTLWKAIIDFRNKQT
Description: HTRF KinEASE Assay : ASK1 was purchased from Thermofisher (Catalogue #PV4011), ATP was purchased from Sigma (Catalogue #A7699), HTRF® KinEASE Assay System was obtained from Cisbio (Bedford, Mass.). ½ Area plate was purchased from Perkin Elmer (Catalogue ##6005560). HTRF® KinEASE-STK is a generic method for measuring serine/threonine kinase activities using a time-resolved fluorescence resonance energy transfer (TR-FRET) immunoassay. The IC50 value for each compound was determined in the presence of compound (various concentration from 0 to 10 μM) and a fixed amount of ATP and peptide substrates. The test compound, 1 μM STK3 peptide substrate, and […] are incubated with kinase reaction buffer containing 50 mM HEPES Ph 7.5, 0.01% BRIJ-35, 10 mM MgCl2, and 1 mM EGTA for 30 minutes. 100 μM ATP is added to start kinase reaction and incubated for 3 hours. The STK3-antibody labeled with Eu3+-Cryptate and 125 nM streptavidin-XL665 are mixed in a single addition with stop reagents provided by the Cisbio kit used to stop the kinase reaction. Fluorescence is detected using an Envision Multilabeled 2014 reader from PerkinElmer. The Fluorescence is measured at 615 nm (Cryptate) and 665 nm (XL665) and a ratio of 665 nm/615 nm is calculated for each well. The resulting TR-FRET is proportional to the phosphorylation level. Staurosporine was used as the positive control. IC50 was determined by Xlfit 5.3.
`COc1cc2c(cc1C(=O)Nc1cccc(-c3nncn3[C@H](C)CO)n1)CN(C)CC2`: the IC50 was under 1.25 nM. Take `COc1cc2c(cc1C(=O)Nc1cccc(-c3nnnn3C(C)C)n1)CN(C(=O)OC(C)C)CC2`: the IC50 is under 1.25 nM. As for `C[C@H](CO)n1cnnc1-c1cccc(NC(=O)c2cc3c(cn2)CCN(S(=O)(=O)c2ccccc2)C3)n1`, the IC50 was under 1.25 nM.

For `COc1cc2c(cc1C(=O)Nc1cccc(-c3nncn3C(C)C)n1)CN(C(C)C)CC2`, the half-inhibitory concentration (IC50) is 1.25 to 10 nM. `COc1cc2c(cc1C(=O)Nc1cccc(-c3nncn3C(C)C)n1)CN(S(=O)(=O)CCC(F)(F)F)CC2`: the IC50 is 1.25 to 10 nM.

As to `COc1cc2c(cc1C(=O)Nc1cccc(-c3nnnn3C(C)C)n1)CN(C(=O)OCC(F)(F)F)CC2`, the IC50 was under 1.25 nM. With `CCOC(=O)N1CCc2cc(OC)c(C(=O)Nc3cccc(-c4nncn4[C@H](C)CO)n3)cc2C1` the figure was under 1.25 nM; with `COc1cc2c(cc1C(=O)Nc1cccc(-c3nncn3C(C)C)n1)CN(C(=O)C(C)(C)C)CC2`, 1.25 to 10 nM. Then `COc1cc2c(cc1C(=O)Nc1cccc(-c3nncn3[C@H](C)CO)n1)CN(S(=O)(=O)C1CC1)CC2`, with 1.25 to 10 nM; and `C[C@H](CO)n1cnnc1-c1cccc(NC(=O)c2cc3c(cc2F)CCN(C(=O)c2ccc(F)cc2)C3)n1`, with 1.25 to 10 nM.

With `COc1cc2c(cc1C(=O)Nc1cccc(-c3nncn3C(C)C)n1)CN(C(=O)OCC(F)(F)F)CC2`, the IC50 is under 1.25 nM. With `COc1cc2c(cc1C(=O)Nc1cccc(-c3nncn3C(C)C)n1)CN(C)CC2`, the IC50 is under 1.25 nM. With `COc1cc2c(cc1C(=O)Nc1cccc(-c3nnnn3[C@H](C)CO)n1)CN(C(=O)OC(C)C)CC2`, the IC50 was under 1.25 nM.

For the compound `COc1cc2c(cc1C(=O)Nc1cccc(-c3nnnn3[C@H](C)CO)n1)CN(C(=O)c1cnn(C)c1)CC2`, the IC50 is under 1.25 nM. As to `CCNC(=O)N1CCc2cc(OC)c(C(=O)Nc3cccc(-c4nnnn4[C@H](C)CO)n3)cc2C1`, the IC50 is 1.25 to 10 nM. Then `CC(C)n1cnnc1-c1cccc(NC(=O)c2cc3c(cn2)CCN(C(=O)c2ccc(F)cc2)C3)n1`, with 1.25 to 10 nM. With `COc1cc2c(cc1C(=O)Nc1cccc(-c3nnnn3C(C)C)n1)CN(C(=O)OCc1ccccc1)CC2` the figure was under 1.25 nM; with `C[C@H](CO)n1cnnc1-c1cccc(NC(=O)c2cc3c(cc2F)CCN(C(=O)N(C)C)C3)n1`, 1.25 to 10 nM; with `C[C@H](CO)n1cnnc1-c1cccc(NC(=O)c2cc3c(cc2F)CCN(C(=O)OCC(F)(F)F)C3)n1`, under 1.25 nM.

As for `COc1cc2c(cc1C(=O)Nc1cccc(-c3nnnn3[C@H](C)CO)n1)CN(C(=O)OCc1ccccc1)CC2`, the IC50 was under 1.25 nM. With `CCOC(=O)N1CCc2cc(F)c(C(=O)Nc3cccc(-c4nncn4[C@H](C)CO)n3)cc2C1` the figure was under 1.25 nM. With `COc1cc2c(cc1C(=O)Nc1cccc(-c3nncn3[C@H](C)CO)n1)CN(C(=O)OCC(F)(F)F)CC2` the figure was 1.25 to 10 nM; with `C[C@H](CO)n1cnnc1-c1cccc(NC(=O)c2cc3c(cc2F)CCN(C(=O)NC2CCCC2)C3)n1`, under 1.25 nM. Then `CCOC(=O)N1CCc2cnc(C(=O)Nc3cccc(-c4nncn4C(C)C)n3)cc2C1`, with 1.25 to 10 nM. Turning to `COc1cc2c(cc1C(=O)Nc1cccc(-c3nnnn3[C@H](C)CO)n1)CN(C(=O)C(C)(C)C)CC2`, the IC50 was under 1.25 nM.

Take `COc1cc2c(cc1C(=O)Nc1cccc(-c3nncn3C(C)C)n1)CN(C(=O)N1CCCC1)CC2`: the IC50 was under 1.25 nM.

These data come from ChEMBL document CHEMBL5729134, “Apoptosis signal-regulating kinase 1 inhibitors and methods of use thereof” (2022).
